Test results as given in PubChem BioAssay AID330 (DTP/NCI, 2004).
Several values for one entry are separate records, joined by “and”; a condition that tells them apart may be missing. Identical values can stand only once. Toxic doses and inconclusive results are not listed.

System: P388 leukemia ip, CD2F1 mice, survival T/C
Assay: NCI In Vivo Anticancer Drug Screen. Data for tumor model P388 Leukemia (intraperitoneal) in CD2F1 (CDF1) mice
Details: endpoint: median survival time, higher = longer survival
In short: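 Mice carrying the transplanted tumor received test compound or vehicle. Survival was recorded in each group, and the value is the treated-group measurement divided by that of the vehicle-treated control group.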

[1] = dose: 50.0 mg/kg/injection, schedule: Q01DX009 (ip), vehicle: saline with Tween-80
[2] = dose: 100.0 mg/kg/injection, schedule: Q01DX009 (ip), vehicle: saline with Tween-80
[3] = dose: 200.0 mg/kg/injection, schedule: Q01DX009 (ip), vehicle: saline with Tween-80
[4] = dose: 25.0 mg/kg/injection, schedule: Q01DX005 (ip), vehicle: saline with Tween-80
[5] = dose: 50.0 mg/kg/injection, schedule: Q01DX005 (ip), vehicle: saline with Tween-80
[6] = dose: 60.0 mg/kg/injection, schedule: Q01DX005 (ip), vehicle: saline with Tween-80
[7] = dose: 120.0 mg/kg/injection, schedule: Q01DX005 (ip), vehicle: saline with Tween-80
[8] = dose: 240.0 mg/kg/injection, schedule: Q01DX005 (ip), vehicle: saline with Tween-80
[9] = dose: 50.0 mg/kg/injection, schedule: Q01DX009 (ip), vehicle: saline
[10] = dose: 200.0 mg/kg/injection, schedule: Q01DX009 (ip), vehicle: saline
[11] = dose: 50.0 mg/kg/injection, schedule: Q01DX005 (ip), vehicle: Klucel (hydroxypropylcellulose) (HPC)
[12] = dose: 100.0 mg/kg/injection, schedule: Q01DX005 (ip), vehicle: Klucel (hydroxypropylcellulose) (HPC)
[13] = dose: 100.0 mg/kg/injection, schedule: Q04DX003 (ip), vehicle: saline with Tween-80
[14] = dose: 100.0 mg/kg/injection, schedule: Q01DX009 (ip), vehicle: saline
[15] = dose: 12.5 mg/kg/injection, schedule: Q01DX005 (ip), vehicle: saline with Tween-80

## O=[N+]([O-])c1cc(Cl)ccc1Cl
[1]
  T/C: 100 % of control
[2]
  T/C: 100 % of control
[3]
  T/C: 91 % of control

## CN(C)c1ccc2c(c1)C(=O)N(OS(C)(=O)=O)C2=O
[4]
  T/C: 111 % of control
[5]
  T/C: 108 % of control and 117 % of control
dose: 100.0 mg/kg/injection, schedule: Q01DX005 (ip), vehicle: saline with Tween-80
  T/C: 106 % of control

## C=C(C)C(=O)OC1CCCC2C(=C)C(=O)OC12 (configuration not stated)
dose: 60.0 mg/kg/injection, schedule: Q01DX005 (ip), vehicle: Klucel (hydroxypropylcellulose) (HPC)
  T/C: 105 % of control
dose: 120.0 mg/kg/injection, schedule: Q01DX005 (ip), vehicle: Klucel (hydroxypropylcellulose) (HPC)
  T/C: 100 % of control
dose: 240.0 mg/kg/injection, schedule: Q01DX005 (ip), vehicle: Klucel (hydroxypropylcellulose) (HPC)
  T/C: 107 % of control

## CCOC(=O)n1c2ccccc2c(=O)n1CCO
[6]
  T/C: 105 % of control
[7]
  T/C: 97 % of control
[8]
  T/C: 91 % of control

## C=CCNC(=S)NCCN(CCO)C(=S)NCC=C
dose: 12.5 mg/kg/injection, schedule: Q01DX009 (ip), vehicle: saline
  T/C: 105 % of control
dose: 25.0 mg/kg/injection, schedule: Q01DX009 (ip), vehicle: saline
  T/C: 104 % of control
[9]
  T/C: 104 % of control and 93 % of control
[10]
  T/C: 98 % of control

## C[O+]=c1cccc2sc(-c3ccccc3)ccc1-2
[11]
  T/C: 99 % of control
[12]
  T/C: 108 % of control

## CN(C)c1cc(-c2ccccc2)oc(=O)c1Cl
[1]
  T/C: 99 % of control
[2]
  T/C: 100 % of control

## COC1OCC2(C)OC(c3ccccc3)=NC2C1O (configuration not stated)
dose: 100.0 mg/kg/injection, schedule: Q04DX002 (ip), vehicle: Klucel (hydroxypropylcellulose) (HPC)
  T/C: 90 % of control
dose: 200.0 mg/kg/injection, schedule: Q04DX002 (ip), vehicle: Klucel (hydroxypropylcellulose) (HPC)
  T/C: 100 % of control

## CC(=O)SCC(C)CCl (configuration not stated)
[13]
  T/C: 100 % of control
dose: 200.0 mg/kg/injection, schedule: Q04DX003 (ip), vehicle: saline with Tween-80
  T/C: 109 % of control

## O=C(c1ccc(Cl)c(Cl)c1)N1CCNC1=S
dose: 50.0 mg/kg/injection, schedule: Q01DX009 (ip), vehicle: Klucel (hydroxypropylcellulose) (HPC)
  T/C: 104 % of control
dose: 100.0 mg/kg/injection, schedule: Q01DX009 (ip), vehicle: Klucel (hydroxypropylcellulose) (HPC)
  T/C: 104 % of control
dose: 200.0 mg/kg/injection, schedule: Q01DX009 (ip), vehicle: Klucel (hydroxypropylcellulose) (HPC)
  T/C: 100 % of control

## NCC(=O)O.[Cl][Ga]([Cl])[Cl]
dose: 66.0 mg/kg/injection, schedule: Q01DX009 (ip), vehicle: saline
  T/C: 110 % of control
[14]
  T/C: 110 % of control
dose: 100.0 mg/kg/injection, schedule: Q04DX003 (ip), vehicle: saline sonified
  T/C: 104 % of control
dose: 150.0 mg/kg/injection, schedule: Q01DX009 (ip), vehicle: saline
  T/C: 120 % of control

## CC(C)=CCC(OC1OC(CO)C(O)C(O)C1N)C1=CC(=O)c2c(O)ccc(O)c2C1=O (configuration not stated)
dose: 2.5 mg/kg/injection, schedule: Q04DX002 (ip), vehicle: saline
  T/C: 103 % of control
dose: 5.0 mg/kg/injection, schedule: Q04DX002 (ip), vehicle: saline
  T/C: 111 % of control
dose: 10.0 mg/kg/injection, schedule: Q04DX002 (ip), vehicle: saline
  T/C: 114 % of control
dose: 20.0 mg/kg/injection, schedule: Q04DX002 (ip), vehicle: saline
  T/C: 113 % of control
dose: 40.0 mg/kg/injection, schedule: Q04DX002 (ip), vehicle: saline
  T/C: 111 % of control

## COc1cccc(Sc2ccc([N+](=O)[O-])c3no[n+]([O-])c23)c1
dose: 0.93 mg/kg/injection, schedule: Q01DX005 (ip), vehicle: saline with Tween-80
  T/C: 100 % of control
dose: 0.93 mg/kg/injection, schedule: Q01DX009 (ip), vehicle: saline with Tween-80
  T/C: 157 % of control
dose: 1.56 mg/kg/injection, schedule: Q01DX005 (ip), vehicle: saline with Tween-80
  T/C: 100 % of control and 97 % of control
dose: 1.87 mg/kg/injection, schedule: Q01DX005 (ip), vehicle: saline with Tween-80
  T/C: 99 % of control
dose: 1.87 mg/kg/injection, schedule: Q01DX009 (ip), vehicle: saline with Tween-80
  T/C: 163 % of control
dose: 3.12 mg/kg/injection, schedule: Q01DX005 (ip), vehicle: saline with Tween-80
  T/C: 100 % of control and 102 % of control
dose: 3.75 mg/kg/injection, schedule: Q01DX005 (ip), vehicle: saline with Tween-80
  T/C: 99 % of control
dose: 3.75 mg/kg/injection, schedule: Q01DX009 (ip), vehicle: saline with Tween-80
  T/C: 99 % of control
dose: 6.25 mg/kg/injection, schedule: Q01DX005 (ip), vehicle: saline with Tween-80
  T/C: 100 % of control and 106 % of control
dose: 7.5 mg/kg/injection, schedule: Q01DX005 (ip), vehicle: saline with Tween-80
  T/C: 102 % of control
[15]
  T/C: 102 % of control and 106 % of control
dose: 15.0 mg/kg/injection, schedule: Q01DX005 (ip), vehicle: saline with Tween-80
  T/C: 106 % of control
dose: 15.0 mg/kg/injection, schedule: Q01DX009 (ip), vehicle: Klucel (hydroxypropylcellulose) (HPC)
  T/C: 184 % of control
dose: 15.0 mg/kg/injection, schedule: Q01DX009 (ip), vehicle: saline with Tween-80
  T/C: 107 % of control
[4]
  T/C: 108 % of control and 111 % of control
dose: 30.0 mg/kg/injection, schedule: Q01DX005 (ip), vehicle: saline with Tween-80
  T/C: 109 % of control
dose: 30.0 mg/kg/injection, schedule: Q01DX009 (ip), vehicle: Klucel (hydroxypropylcellulose) (HPC)
  T/C: 166 % of control
[6]
  T/C: 110 % of control
dose: 60.0 mg/kg/injection, schedule: Q01DX009 (ip), vehicle: Klucel (hydroxypropylcellulose) (HPC)
  T/C: 88 % of control

## COC(=S)NC(=O)c1ccc(F)cc1
[1]
  T/C: 103 % of control
[2]
  T/C: 112 % of control
[3]
  T/C: 117 % of control
dose: 400.0 mg/kg/injection, schedule: Q01DX009 (ip), vehicle: saline with Tween-80
  T/C: 110 % of control

## COc1cc(C2C3=C(CC(C)(C)CC3=O)N(CC(=O)O)C3=C2C(=O)CC(C)(C)C3)ccc1O
[9]
  T/C: 95 % of control
[14]
  T/C: 102 % of control
[10]
  T/C: 113 % of control

## CC(c1ccccc1)/[N+]([O-])=N\O (configuration not stated)
dose: 3.0 mg/kg/injection, schedule: Q01DX005 (ip), vehicle: Klucel + Tween-80
  T/C: 100 % of control
dose: 6.0 mg/kg/injection, schedule: Q01DX005 (ip), vehicle: Klucel + Tween-80
  T/C: 90 % of control
dose: 12.0 mg/kg/injection, schedule: Q01DX005 (ip), vehicle: Klucel + Tween-80
  T/C: 97 % of control
dose: 24.0 mg/kg/injection, schedule: Q01DX005 (ip), vehicle: Klucel + Tween-80
  T/C: 98 % of control

## NC(Cc1ccc(Br)cc1)c1nn[nH]n1 (configuration not stated)
dose: 25.0 mg/kg/injection, schedule: Q01DX009 (ip), vehicle: saline with Tween-80
  T/C: 104 % of control
[1]
  T/C: 100 % of control
[2]
  T/C: 100 % of control

## CC1(C)Nc2cccc3cccc(c23)N1
[11]
  T/C: 108 % of control
[12]
  T/C: 86 % of control

## CCCCCC/C=C/C1CC(=O)OC1=O (configuration not stated)
[13]
  T/C: 95 % of control

## Cc1ccc(OP(=O)(Oc2ccc(C)cc2)Oc2ccc(C)cc2)cc1.Cc1ccc(OP(=O)(Oc2ccc(C)cc2)Oc2ccc(C)cc2)cc1.[Cl][Cr]([Cl])[Cl]
dose: 100.0 mg/kg/injection, schedule: Q01DX001 (ip), vehicle: Klucel (hydroxypropylcellulose) (HPC)
  T/C: 100 % of control
dose: 200.0 mg/kg/injection, schedule: Q01DX001 (ip), vehicle: Klucel (hydroxypropylcellulose) (HPC)
  T/C: 95 % of control
dose: 400.0 mg/kg/injection, schedule: Q01DX001 (ip), vehicle: Klucel (hydroxypropylcellulose) (HPC)
  T/C: 99 % of control

## CCOC(=O)c1ccc(=O)n2c1[nH]c1ccccc12
[15]
  T/C: 105 % of control
[4]
  T/C: 108 % of control
[5]
  T/C: 100 % of control and 108 % of control

## C1=C(/C=C2\CCCc3c(-c4ccccc4)cc(-c4ccccc4)[o+]c32)CCC/C1=C\C1=C2OC(c3ccccc3)=CC(c3ccccc3)=C2CCC1
[6]
  T/C: 102 % of control
[7]
  T/C: 93 % of control
[8]
  T/C: 87 % of control

## OCC1CC12c1ccccc1-c1ccccc12 (configuration not stated)
[6]
  T/C: 98 % of control
[7]
  T/C: 96 % of control
[8]
  T/C: 101 % of control

## CCN1CCCc2cc3c(C(F)(F)F)cc(=O)oc3cc21
[11]
  T/C: 97 % of control
[12]
  T/C: 106 % of control
dose: 200.0 mg/kg/injection, schedule: Q01DX005 (ip), vehicle: Klucel (hydroxypropylcellulose) (HPC)
  T/C: 97 % of control
